Assays:
[1] = biological target: T1, recombinant human JAK1 kinase domain protein (Residues 854-1154) (Homo sapiens, UniProt P23458); assay: JAK1 biochemical assay (microfluidic mobility shift, peptide phosphorylation); settings: 25 μM ATP, 1 nM total JAK1; read-out: Enzyme JAK1 Ki
T1 construct: human JAK1 kinase domain protein (Residues 854-1154); purchased Proteros Biostructures GmbH (Martinsried, Germany); host or cells: insect cells
Excerpt: JAK1 and JAK2 Biochemical Assays

[2] = biological target: Recombinant human JAK2 kinase domain protein (Residues 812-1132) (Homo sapiens, UniProt O60674); assay: JAK2 biochemical assay (microfluidic mobility shift, peptide phosphorylation); settings: Enzyme JAK2 Ki (nM), 25 μM ATP, 0.2 nM total JAK2
Procedure: The in vitro biochemical assays quantify JAK-catalyzed phosphorylation of a synthetic peptide, as detected using a LabChip® EZ Reader II microfluidic mobility shift instrument (PerkinElmer; Waltham, Mass.). […] Y-1B is fluorescently labeled on the N-terminus with 5-FAM (5-carboxyfluorescein) and contains a single tyrosine residue (Y) that can be phosphorylated by JAK activity. The substrate peptide stock is prepared in DMSO at 5 mM.
In each titration experiment, test compound was tested in duplicate at each of the twelve concentrations. Blank reactions contained ATP, peptide, and DMSO, but no JAK or test compound, whereas uninhibited control reactions contained ATP, peptide, JAK, and DMSO, but no test compound.
Peptide plus ATP mixture (24 μL) was added to 1 μL of test compound in DMSO (or DMSO alone). The reactions were initiated by adding 25 μL of JAK enzyme to the inhibitor/peptide/ATP mixture before thoroughly mixing the resultant solution. Reactions were incubated at room temperature (22° C.-23° C.) in a final volume of 50 μL per well in 384-well plates.
In each reaction, the residual Y-1B substrate and the phospho-peptide product generated were separated using the EZ Reader II instrument. Electrophoretic separation of molecules of product from molecules of substrate was achieved using downstream and upstream voltages of −500 and −2600 V, respectively, at an operating pressure of −1.3 psi.
The extent (or percent) of conversion of substrate to product was calculated from the corresponding peak heights in the electropherogram using HTS Well Analyzer software, Version 5.2 (PerkinElmer), and the following equation (Equation 1): % conversion=[P÷(S+P)]×100 Equation 1 where S and P represent the peak heights of the substrate and product, respectively. After any baseline signal from blank wells containing no JAK was subtracted from the signal of all test wells, the % conversion data were converted to fractional activity as shown in Equation 2, where vi and vo are the % conversion in the presence and absence of test compound, respectively.

[3] = tested on: JAK1: IL-13-stimulated STAT6 phosphorylation in BEAS-2B cells; assay: P-STAT6 BEAS-2B+IL-13 Cell Assay; format: cell-based, human; settings: Homo sapiens, BEAS-2B, IL-13 stimulation, read-out: Cellular JAK1 PSTAT6 BEAS2B + IL13 IC50
Procedure: P-STAT6 BEAS-2B+IL-13 Cell Assay
In order to study the effect of JAK1 inhibitors in a cell line that is relevant to the cell biology of human asthma, an IL-13-stimulated STAT6 phosphorylation assay in the human lung bronchial epithelial BEAS-2B cell line was developed.
BEAS-2B cells (ATCC® CRL-9609™) were grown in Bronchial Epithelial Growth Medium (BEGM) (Lonza Catalog No. CC-3170; Walkersville, Md.; or PromoCell Catalog No. C-21060; Heidelberg, Germany). Test compound stock solutions (0.5 mM in DMSO) were serially diluted 1:2 in DMSO to generate a 10-point concentration curve (at 500×test concentration), which was further diluted by a 50-fold dilution step in BEGM to generate a 10× concentration curve (in 2% DMSO). Cells were plated at 100,000 cells/well in 200 μL of BEGM in 96-well plates and incubated for 48 hours at 37° C. in a humidified incubator. Medium was aspirated from the cells and replaced with 70 μL of fresh BEGM. Diluted test compound (10 μL; or 2% DMSO in assay medium) was added to the cells, and the plates were incubated for 1 hour at 37° C. in a humidified incubator. Twenty μL of 250 ng/mL human recombinant IL-13 (Bio Techne Catalog No. 213-ILB) was then added to the cells and incubated for 15 minutes at 37° C. Medium was aspirated from the cells and 60 μL of ice-cold 1×cell lysis buffer (Cell Signaling Technologies; Catalog No. 9803S) containing 1 mM PMSF was added to the cells. Assay plates were incubated at −80° C. for at least 1 hour. P-STAT6 was measured by coating GAR plates (MSD; Catalog No. L45RA-1) with rabbit anti-human total STAT6 antibody (Cell Signaling Technologies; Catalog No. 9362S), incubating the cell lysates in the coated plates overnight at 4° C., and then detecting with mouse anti-phospho-STAT6 (Tyr641) Clone 16E12 antibody (Millipore; Catalog No. 05-590, custom labeled by MSD with SULFO-tag) using standard MSD plate processing, washing, and detection protocols. Plates were read on the MESO SECTOR S600. Data Analysis
Data analysis was performed by subtracting negative control values from all wells and determining percent of control using the positive control values; the IC50 was determined with a four-parameter logistic fit model as shown in Equation 4.

T1 sequence (P23458 854-1154): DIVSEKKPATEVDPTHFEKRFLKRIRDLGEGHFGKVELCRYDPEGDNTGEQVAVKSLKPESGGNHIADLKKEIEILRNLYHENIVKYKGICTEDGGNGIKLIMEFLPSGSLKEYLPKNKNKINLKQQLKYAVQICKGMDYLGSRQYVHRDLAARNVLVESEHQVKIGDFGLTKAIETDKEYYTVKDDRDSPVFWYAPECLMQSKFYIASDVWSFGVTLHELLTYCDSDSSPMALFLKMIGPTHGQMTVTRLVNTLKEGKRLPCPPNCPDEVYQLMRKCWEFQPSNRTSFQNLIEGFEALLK
Recombinant human JAK2 kinase domain protein (Residues 812-1132), sequence (O60674 812-1132): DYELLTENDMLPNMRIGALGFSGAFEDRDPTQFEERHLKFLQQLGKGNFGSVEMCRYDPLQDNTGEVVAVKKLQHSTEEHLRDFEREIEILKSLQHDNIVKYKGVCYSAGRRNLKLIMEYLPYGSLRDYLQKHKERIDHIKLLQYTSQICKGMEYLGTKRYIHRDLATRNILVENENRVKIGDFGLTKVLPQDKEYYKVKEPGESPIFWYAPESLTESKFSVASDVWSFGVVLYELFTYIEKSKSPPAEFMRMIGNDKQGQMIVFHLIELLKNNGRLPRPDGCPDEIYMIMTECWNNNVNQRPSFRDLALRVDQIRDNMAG

Structure (SMILES) | Ki [1] [nM] | Ki [2] [nM] | IC50 [3] [nM]
Cn1cc(NC(=O)c2cnn3cccnc23)c(-c2cc(S(=O)(=O)CCN)ccc2OC(F)F)n1 [Example 8, N-[3-[5-(2-aminoethylsulfonyl)-2-(difluoromethoxy)phenyl]-1-methyl-pyrazol-4-yl]pyrazolo[1,5-a]pyrimidine-3-carboxamide] | 0.82 | 0.48 | 92
Cn1cc(NC(=O)c2cnn3cccnc23)c(-c2cc(S(=O)(=O)C3CCNC3)ccc2OC(F)F)n1 (stereo not drawn) [Example 10, N-[3-[2-(difluoromethoxy)-5-pyrrolidin-3-ylsulfonyl-phenyl]-1-methyl-pyrazol-4-yl]pyrazolo[1,5-a]pyrimidine-3-carboxamide] | 0.95 | 0.6 | 52
Cn1cc(NC(=O)c2cnn3cccnc23)c(-c2cc(S(=O)(=O)c3cccc(CCN)c3)ccc2OC(F)F)n1 [Example 18, N-[3-[5-[3-(2-aminoethyl)phenyl]sulfonyl-2-(difluoromethoxy)phenyl]-1-methyl-pyrazol-4-yl]pyrazolo[1,5-a]pyrimidine-3-carboxamide] | 0.43 | 0.4 | 290
CC(=O)N1CC(S(=O)(=O)c2ccc(OC(F)F)c(-c3nn(C)cc3NC(=O)c3cnn4cccnc34)c2)C1 [Example 27, N-[3-[5-(1-acetylazetidin-3-yl)sulfonyl-2-(difluoromethoxy)phenyl]-1-methyl-pyrazol-4-yl]pryazolo[1,5-a]pyrimidine-3-carboxamide] | 0.59 | 0.26 | 99
N#CCn1cc(NC(=O)c2cnn3cccnc23)c(-c2cc(S(=O)(=O)C(F)F)ccc2OC(F)F)n1 [Example 29, N-[1-(cyanomethyl)-3-[2-(difluoromethoxy)-5-(difluoromethylsulfonyl)phenyl]pyrazol-4-yl]pyrazolo[1,5-a]pyrimidine-3-carboxamide] | 0.58 | 0.37 | 25
Cn1cc(NC(=O)c2cnn3cccnc23)c(-c2cc(S(N)(=O)=O)ccc2OC(F)F)n1 [Example 31, N-[3-[2-(difluoromethoxy)-5-sulfamoyl-phenyl]-1-methyl-pyrazol-4-yl]pyrazolo[1,5-a]pyrimidine-3-carboxamide] | 0.84 | 0.38 | 51
CC(C)OC(=O)n1cc(NC(=O)c2cnn3cccnc23)c(-c2cc(S(C)(=O)=O)ccc2OC(F)F)n1 [Example 34, isopropyl 3-[2-(difluoromethoxy)-5-methylsulfonyl-phenyl]-4-(pyrazolo[1,5-a]pyrimidine-3-carbonylamino)pyrazole-1-carboxylate] | 0.31 | 0.29 | 21
C[C@H](O)Cn1cc(S(=O)(=O)c2ccc(OC(F)F)c(-c3nn(C)cc3NC(=O)c3cnn4cccnc34)c2)cn1 [Example 38, N-[3-[2-(difluoromethoxy)-5-[1-[(2S)-2-hydroxypropyl]pyrazol-4-yl]sulfonyl-phenyl]-1-methyl-pyrazol-4-yl]pyrazolo[1,5-a]pyrimidine-3-carboxamide] | 0.34 | 0.25 | 89
Cn1cc(NC(=O)c2cnn3cccnc23)c(-c2cc(S(=O)(=O)C(CF)CF)ccc2OC(F)F)n1 [Example 39, N-[3-[2-(difluoromethoxy)-5-[2-fluoro-1-(fluoromethyl)ethyl]sulfonyl-phenyl]-1-methyl-pyrazol-4-yl]pyrazolo[1,5-a]pyrimidine-3-carboxamide] | 1.5 | 0.53 | 230
Cn1cc(NC(=O)c2cnn3cccnc23)c(-c2cc(S(=O)(=O)c3ccc(=O)[nH]c3)ccc2OC(F)F)n1 [Example 43, N-[3-[2-(difluoromethoxy)-5-[(6-oxo-1H-pyridin-3-yl)sulfonyl]phenyl]-1-methyl-pyrazol-4-yl]pyrazolo[1,5-a]pyrimidine-3-carboxamide] | 0.5 | 0.27 | ≥ 1000
Cn1cc(NC(=O)c2cnn3cccnc23)c(-c2cc(S(=O)(=O)c3cnn(CCN)c3)ccc2OC(F)F)n1 [Example 47, N-[3-[5-[1-(2-aminoethyl)pyrazol-4-yl]sulfonyl-2-(difluoromethoxy)phenyl]-1-methyl-pyrazol-4-yl]pyrazolo[1,5-a]pyrimidine-3-carboxamide] | 0.31 | 0.33 | 210
N#CCn1cc(NC(=O)c2cnn3cccnc23)c(-c2cc(S(=O)(=O)C3COC3)ccc2OC(F)F)n1 [Example 51, N-[1-(cyanomethyl)-3-[2-(difluoromethoxy)-5-(oxetan-3-ylsulfonyl)phenyl]pyrazol-4-yl]pyrazolo[1,5-a]pyrimidine-3-carboxamide] | 0.39 | 0.21 | 100
CN1CC(n2cc(NC(=O)c3cnn4cccnc34)c(-c3cc(S(=O)(=O)C4CC4)ccc3OC(F)F)n2)C1 [Example 52, N-[3-[5-cyclopropylsulfonyl-2-(difluoromethoxy)phenyl]-1-(1-methylazetidin-3-yl)pyrazol-4-yl]pyrazolo[1,5-a]pyrimidine-3-carboxamide] | 2.2 | 1 | 96
Cn1cc(NC(=O)c2cnn3cccnc23)c(-c2cc(S(=O)(=O)c3cnn(CCN4CCC4)c3)ccc2OC(F)F)n1 [Example 53, N-[3-[5-[1-[2-(azetidin-1-yl)ethyl]pyrazol-4-yl]sulfonyl-2-(difluoromethoxy)phenyl]-1-methyl-pyrazol-4-yl]pyrazolo[1,5-a]pyrimidine-3-carboxamide] | 0.94 | 0.19 | 50
CN1CCN(CCn2cc(S(=O)(=O)c3ccc(OC(F)F)c(-c4nn(C)cc4NC(=O)c4cnn5cccnc45)c3)cn2)CC1 [Example 54, N-[3-[2-(difluoromethoxy)-5-[1-[2-(4-methylpiperazin-1-yl)ethyl]pyrazol-4-yl]sulfonyl-phenyl]-1-methyl-pyrazol-4-yl]pyrazolo[1,5-a]pyrimidine-3-carboxamide] | 1.2 | 0.21 | 140
Cn1cc(NC(=O)c2cnn3cccnc23)c(-c2cc(S(=O)(=O)c3cnn(C4CN5CCC4CC5)c3)ccc2OC(F)F)n1 (stereo not drawn) [Example 55, N-[3-[2-(difluoromethoxy)-5-(1-quinuclidin-3-ylpyrazol-4-yl)sulfonyl-phenyl]-1-methyl-pyrazol-4-yl]pyrazolo[1,5-a]pyrimidine-3-carboxamide] | 0.93 | 0.98 | 71
CN1C=Cc2ccc(S(=O)(=O)c3ccc(OC(F)F)c(-c4nn(C)cc4NC(=O)c4cnn5cccnc45)c3)cc2C1 [Example 62, N-[3-[2-(difluoromethoxy)-5-[(2-methyl-1H-isoquinolin-7-yl)sulfonyl]phenyl]-1-methyl-pyrazol-4-yl]pyrazolo[1,5-a]pyrimidine-3-carboxamide] | 2 | 0.93 | 150
CN1C=Cc2cc(S(=O)(=O)c3ccc(OC(F)F)c(-c4nn(C)cc4NC(=O)c4cnn5cccnc45)c3)ccc2C1 [Example 64, N-[3-[2-(difluoromethoxy)-5-[(2-methyl-1H-isoquinolin-6-yl)sulfonyl]phenyl]-1-methyl-pyrazol-4-yl]pyrazolo[1,5-a]pyrimidine-3-carboxamide] | 1.9 | 0.84 | 210

Source: patent US11453671B2, “Pyrazolopyrimidine inhibitors of JAK kinases and uses thereof” (Genentech, Inc., priority 2020, dated 2022)
